Source: ChEMBL document CHEMBL1135802, “Pyrrolo[1,3]benzothiazepine-based atypical antipsychotic agents. Synthesis, structure-activity relationship, molecular modeling, and biological studies” (J Med Chem, 2002)

Columns and labels:
[1] = molecular target: T1, D(3) dopamine receptor (Rattus norvegicus, UniProt P19020); set-up: species or system Tissue
Description: Half-maximal inhibition of [3H]-7-OH-DPAT binding to Dopamine receptor D3 in rat tissue homogenate

[2] = molecular target: T2, D(1A) dopamine receptor (Rattus norvegicus, UniProt P18901)
[3] = molecular target: T3, Adrenergic receptor alpha-2 (Rattus norvegicus, UniProt P22086+P19328+P22909); assay type: tissue-based, Frontal cortex
T3 sequence (P22086 whole entry): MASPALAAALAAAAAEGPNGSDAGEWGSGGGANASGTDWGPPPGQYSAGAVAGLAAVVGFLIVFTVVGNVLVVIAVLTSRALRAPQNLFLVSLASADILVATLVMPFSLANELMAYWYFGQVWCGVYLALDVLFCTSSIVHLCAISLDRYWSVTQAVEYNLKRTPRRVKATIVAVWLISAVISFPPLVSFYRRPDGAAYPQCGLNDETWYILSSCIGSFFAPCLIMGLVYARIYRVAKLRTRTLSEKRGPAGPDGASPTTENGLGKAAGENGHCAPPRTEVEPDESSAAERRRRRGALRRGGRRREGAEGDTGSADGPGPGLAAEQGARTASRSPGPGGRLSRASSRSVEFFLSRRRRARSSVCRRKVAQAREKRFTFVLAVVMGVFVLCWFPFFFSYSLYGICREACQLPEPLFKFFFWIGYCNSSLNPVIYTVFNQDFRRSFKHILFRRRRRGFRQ
T3 sequence (P19328 whole entry): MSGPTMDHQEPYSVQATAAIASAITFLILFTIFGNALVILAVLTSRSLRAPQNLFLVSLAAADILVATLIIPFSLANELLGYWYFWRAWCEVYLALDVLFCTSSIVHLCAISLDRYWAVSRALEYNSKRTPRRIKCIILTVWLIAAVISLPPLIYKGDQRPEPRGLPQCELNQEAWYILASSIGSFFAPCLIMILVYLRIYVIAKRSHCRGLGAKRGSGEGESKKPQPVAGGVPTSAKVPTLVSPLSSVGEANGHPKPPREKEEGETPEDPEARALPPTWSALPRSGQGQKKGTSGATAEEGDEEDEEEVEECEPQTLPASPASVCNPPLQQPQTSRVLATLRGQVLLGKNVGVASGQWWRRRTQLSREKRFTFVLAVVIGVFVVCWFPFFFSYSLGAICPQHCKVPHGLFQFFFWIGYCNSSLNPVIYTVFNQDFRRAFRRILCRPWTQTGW
T3 sequence (P22909 whole entry): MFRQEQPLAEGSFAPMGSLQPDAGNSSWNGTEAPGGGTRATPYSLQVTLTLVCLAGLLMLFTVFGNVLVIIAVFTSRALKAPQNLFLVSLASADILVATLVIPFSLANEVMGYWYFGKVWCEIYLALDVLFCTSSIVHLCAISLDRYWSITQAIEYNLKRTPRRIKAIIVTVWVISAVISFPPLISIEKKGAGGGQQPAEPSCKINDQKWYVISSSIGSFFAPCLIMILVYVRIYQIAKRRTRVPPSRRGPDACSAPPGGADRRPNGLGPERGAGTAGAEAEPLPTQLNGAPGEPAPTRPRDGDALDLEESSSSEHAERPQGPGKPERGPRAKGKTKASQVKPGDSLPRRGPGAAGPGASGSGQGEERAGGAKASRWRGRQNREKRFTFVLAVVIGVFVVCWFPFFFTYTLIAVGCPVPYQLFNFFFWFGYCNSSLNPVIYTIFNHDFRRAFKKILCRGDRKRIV
Description: Half-maximal inhibition of [3H]clonidine binding to Alpha-2 adrenergic receptor in rat frontal cortex homogenate

[4] = organism: Mus musculus; assay: animal or person; assay type: functional; settings: sc, dose 0.19 mg/kg, route subcutaneous
[5] = organism: Rattus norvegicus; settings: in vivo
[6] = organism: Rattus norvegicus; settings: in vivo; remark: listed apart in the source
Description: Area under curve (AUC) value of HVA level after first treatment (7.4 uM/Kg) in dialysates collected from rat striatum.

[7] = organism: Rattus norvegicus; settings: in vivo; remark: listed apart in the source
[8] = organism: Rattus norvegicus; settings: in vivo; remark: listed apart in the source
Description: Area under curve (AUC) value of DOPAC level after total treatment in dialysates collected from rat striatum.

[9] = organism: Mus musculus; assay: animal or person; assay type: functional; settings: dose 7.9 mg/kg, route oral
[10] = organism: Mus musculus; assay: animal or person; assay type: functional; settings: sc, route subcutaneous
Description: Ability to antagonize apomorphine-induced climbing in mice after administration of 0.10 mg/kg dose subcutaneously

[11] = organism: Rattus norvegicus; settings: in vivo; remark: listed apart in the source
Description: Area under curve (AUC) value of DOPAC level after first treatment (7.4 uM/Kg) in dialysates collected from rat striatum.

[12] = molecular target: T4, Muscarinic acetylcholine receptor M1 (Rattus norvegicus, UniProt P08482); assay: biochemical; assay type: tissue-based, Frontal cortex
T4 sequence (P08482 whole entry): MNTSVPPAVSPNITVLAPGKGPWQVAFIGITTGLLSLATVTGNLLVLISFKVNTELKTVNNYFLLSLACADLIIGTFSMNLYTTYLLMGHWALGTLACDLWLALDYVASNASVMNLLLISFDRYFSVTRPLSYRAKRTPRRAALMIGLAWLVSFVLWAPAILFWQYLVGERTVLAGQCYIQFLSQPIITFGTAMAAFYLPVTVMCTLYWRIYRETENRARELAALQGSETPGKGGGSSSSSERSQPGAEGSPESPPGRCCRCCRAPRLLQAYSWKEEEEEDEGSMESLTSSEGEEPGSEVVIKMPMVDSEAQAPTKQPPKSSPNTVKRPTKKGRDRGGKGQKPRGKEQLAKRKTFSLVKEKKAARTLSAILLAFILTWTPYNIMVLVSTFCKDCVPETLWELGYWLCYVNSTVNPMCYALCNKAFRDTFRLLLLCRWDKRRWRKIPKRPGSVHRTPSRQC
Description: Half-maximal inhibition of [3H]QNB binding to Muscarinic acetylcholine receptor M1 in rat frontal cortex homogenate

[13] = organism: Mus musculus; assay: animal or person; assay type: functional; settings: po
[14] = organism: Rattus norvegicus; settings: in vivo; remark: listed apart in the source
Description: Area under curve (AUC) value of HVA level after total treatment in dialysates collected from rat striatum.

[15] = organism: Mus musculus; assay: animal or person; assay type: functional; settings: sc, route subcutaneous; remark: listed apart in the source
[16] = organism: Rattus norvegicus; settings: in vivo; remark: listed apart in the source
Description: Area under curve (AUC) value of Dopamine level after total treatment in dialysates collected from rat striatum.

[17] = molecular target: T5, Adrenergic receptor alpha-1 (Rattus norvegicus, UniProt P15823+P23944+P43140); assay type: tissue-based, Frontal cortex
T5 sequence (P15823 whole entry): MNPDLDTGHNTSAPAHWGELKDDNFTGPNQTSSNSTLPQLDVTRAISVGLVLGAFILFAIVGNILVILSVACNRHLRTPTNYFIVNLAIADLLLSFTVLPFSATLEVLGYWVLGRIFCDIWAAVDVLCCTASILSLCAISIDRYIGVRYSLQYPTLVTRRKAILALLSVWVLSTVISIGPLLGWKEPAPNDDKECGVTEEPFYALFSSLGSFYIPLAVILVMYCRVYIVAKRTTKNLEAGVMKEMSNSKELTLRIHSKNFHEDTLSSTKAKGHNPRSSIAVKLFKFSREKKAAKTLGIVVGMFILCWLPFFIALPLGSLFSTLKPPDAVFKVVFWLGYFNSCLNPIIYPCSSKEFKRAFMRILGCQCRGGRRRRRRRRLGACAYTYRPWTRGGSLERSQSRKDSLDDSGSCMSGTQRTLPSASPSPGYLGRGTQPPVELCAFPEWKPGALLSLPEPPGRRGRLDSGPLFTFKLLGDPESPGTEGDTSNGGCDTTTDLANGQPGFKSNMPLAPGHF
T5 sequence (P23944 whole entry): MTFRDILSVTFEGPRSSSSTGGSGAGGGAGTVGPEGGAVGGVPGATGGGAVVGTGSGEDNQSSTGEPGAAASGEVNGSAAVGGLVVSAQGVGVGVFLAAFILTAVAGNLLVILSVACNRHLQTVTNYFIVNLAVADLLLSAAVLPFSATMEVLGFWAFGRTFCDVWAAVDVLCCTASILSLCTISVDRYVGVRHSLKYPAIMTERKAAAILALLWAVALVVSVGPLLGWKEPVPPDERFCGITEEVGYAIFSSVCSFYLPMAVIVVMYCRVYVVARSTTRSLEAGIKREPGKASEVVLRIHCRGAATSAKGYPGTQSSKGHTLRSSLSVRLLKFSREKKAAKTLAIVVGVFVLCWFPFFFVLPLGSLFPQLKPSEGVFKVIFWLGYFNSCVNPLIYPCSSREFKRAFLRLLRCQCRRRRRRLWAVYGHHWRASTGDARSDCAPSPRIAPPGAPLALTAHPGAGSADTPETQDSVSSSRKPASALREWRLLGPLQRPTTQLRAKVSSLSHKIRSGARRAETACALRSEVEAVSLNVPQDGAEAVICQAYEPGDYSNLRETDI
T5 sequence (P43140 whole entry): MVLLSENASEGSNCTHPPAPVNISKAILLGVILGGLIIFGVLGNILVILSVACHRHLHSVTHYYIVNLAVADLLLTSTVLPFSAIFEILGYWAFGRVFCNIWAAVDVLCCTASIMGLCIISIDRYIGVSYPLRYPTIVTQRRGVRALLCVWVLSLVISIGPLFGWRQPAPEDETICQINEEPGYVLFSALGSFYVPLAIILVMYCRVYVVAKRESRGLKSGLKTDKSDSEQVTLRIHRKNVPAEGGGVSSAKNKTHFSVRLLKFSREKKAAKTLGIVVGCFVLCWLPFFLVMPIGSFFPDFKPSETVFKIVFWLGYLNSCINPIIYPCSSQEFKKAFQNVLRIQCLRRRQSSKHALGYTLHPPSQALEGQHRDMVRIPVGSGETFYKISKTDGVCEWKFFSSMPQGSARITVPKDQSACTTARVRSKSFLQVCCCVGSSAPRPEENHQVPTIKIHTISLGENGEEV
Description: Inhibition of [3H]-prazosin binding to Alpha-1 adrenergic receptor in rat frontal cortex homogenate

[18] = organism: Rattus norvegicus; settings: in vivo; remark: listed apart in the source
Description: Area under curve (AUC) value of Dopamine level after first treatment (7.4 uM/Kg) in dialysates collected from rat striatum.

[19] = organism: Rattus norvegicus; settings: in vivo; remark: listed apart in the source
[20] = organism: Mus musculus; assay: animal or person; assay type: functional; settings: route oral
[21] = molecular target: T6, 5-hydroxytryptamine receptor 2A (Rattus norvegicus, UniProt P14842); assay: biochemical
[22] = molecular target: T6, 5-hydroxytryptamine receptor 2A; assay: biochemical; assay type: tissue-based, Cerebral cortex
[23] = molecular target: T1, D(3) dopamine receptor; set-up: species or system Tissue; remark: listed apart in the source
Description: Half-maximal inhibition of [3H]7-OH-DPAT binding to Dopamine receptor D3 in rat tissue homogenate

[24] = molecular target: Histamine H1 receptor (Rattus norvegicus, UniProt P31390); assay: biochemical; assay type: tissue-based, Frontal cortex
Description: Half-maximal inhibition of [3H]pyrilamine binding to Histamine H1 receptor in rat frontal cortex homogenate

[25] = molecular target: T1, D(3) dopamine receptor; set-up: species or system Tissue; remark: listed apart in the source
[26] = organism: Mus musculus; assay: animal or person; assay type: functional; settings: sc
Description: Effective dose required to antagonize apomorphine-induced catalepsy in mice after administration of >100 mg/kg dose subcutaneously

[27] = organism: Mus musculus; assay: animal or person; assay type: functional; settings: sc, dose 0.83 mg/kg, route subcutaneous
[28] = organism: Mus musculus; assay: animal or person; assay type: functional; settings: sc, dose 1.5 mg/kg, route subcutaneous
[29] = molecular target: T2, D(1A) dopamine receptor; remark: listed apart in the source

T1 sequence (P19020 whole entry): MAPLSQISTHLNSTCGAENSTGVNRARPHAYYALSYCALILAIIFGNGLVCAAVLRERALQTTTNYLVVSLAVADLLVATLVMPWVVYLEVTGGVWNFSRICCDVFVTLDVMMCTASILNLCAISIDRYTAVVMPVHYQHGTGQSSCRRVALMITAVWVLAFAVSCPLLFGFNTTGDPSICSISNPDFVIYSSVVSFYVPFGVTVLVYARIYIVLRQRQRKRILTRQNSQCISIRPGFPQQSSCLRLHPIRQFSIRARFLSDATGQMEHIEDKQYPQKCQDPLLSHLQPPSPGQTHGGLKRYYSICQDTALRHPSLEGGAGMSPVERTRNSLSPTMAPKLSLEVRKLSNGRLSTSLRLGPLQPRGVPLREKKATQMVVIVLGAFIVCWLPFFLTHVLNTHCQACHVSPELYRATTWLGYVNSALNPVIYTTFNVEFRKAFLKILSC
T6 sequence (P14842 whole entry): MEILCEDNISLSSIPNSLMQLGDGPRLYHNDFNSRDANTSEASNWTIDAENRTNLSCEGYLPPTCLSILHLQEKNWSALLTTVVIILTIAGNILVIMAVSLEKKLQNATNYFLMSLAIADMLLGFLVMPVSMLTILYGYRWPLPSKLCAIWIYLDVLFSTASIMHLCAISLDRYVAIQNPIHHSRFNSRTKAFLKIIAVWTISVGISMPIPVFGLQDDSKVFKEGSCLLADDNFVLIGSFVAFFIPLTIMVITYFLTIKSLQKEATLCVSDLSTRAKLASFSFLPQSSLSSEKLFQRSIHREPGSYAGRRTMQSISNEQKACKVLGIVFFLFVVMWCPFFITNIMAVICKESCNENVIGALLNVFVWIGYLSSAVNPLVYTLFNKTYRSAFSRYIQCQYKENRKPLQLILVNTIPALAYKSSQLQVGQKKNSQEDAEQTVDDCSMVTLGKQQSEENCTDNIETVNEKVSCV
T2 sequence (P18901 whole entry): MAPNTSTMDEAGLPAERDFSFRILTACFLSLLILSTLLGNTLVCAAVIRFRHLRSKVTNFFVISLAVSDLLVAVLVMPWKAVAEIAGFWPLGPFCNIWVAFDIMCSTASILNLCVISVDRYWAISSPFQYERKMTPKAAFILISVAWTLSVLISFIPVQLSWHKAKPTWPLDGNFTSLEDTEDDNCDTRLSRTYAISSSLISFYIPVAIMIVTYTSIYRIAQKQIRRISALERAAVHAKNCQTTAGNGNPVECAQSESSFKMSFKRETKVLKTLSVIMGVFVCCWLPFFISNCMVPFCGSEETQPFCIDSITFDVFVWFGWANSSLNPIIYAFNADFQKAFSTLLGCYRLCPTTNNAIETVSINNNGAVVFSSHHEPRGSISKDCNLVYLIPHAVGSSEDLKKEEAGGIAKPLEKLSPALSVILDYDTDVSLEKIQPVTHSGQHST
Chain of Histamine H1 receptor (P31390 whole entry): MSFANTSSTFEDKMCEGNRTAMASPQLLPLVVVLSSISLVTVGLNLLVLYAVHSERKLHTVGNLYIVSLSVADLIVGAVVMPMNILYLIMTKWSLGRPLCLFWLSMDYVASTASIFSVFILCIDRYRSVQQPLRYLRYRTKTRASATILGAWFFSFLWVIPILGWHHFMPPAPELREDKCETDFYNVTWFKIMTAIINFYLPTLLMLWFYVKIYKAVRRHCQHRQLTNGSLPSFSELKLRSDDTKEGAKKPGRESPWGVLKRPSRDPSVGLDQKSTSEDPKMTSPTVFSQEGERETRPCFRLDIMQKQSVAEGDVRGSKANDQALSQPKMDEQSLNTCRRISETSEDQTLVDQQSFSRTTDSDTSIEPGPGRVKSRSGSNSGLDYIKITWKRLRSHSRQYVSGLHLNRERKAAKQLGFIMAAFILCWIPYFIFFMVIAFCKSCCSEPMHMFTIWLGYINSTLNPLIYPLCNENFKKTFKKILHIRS

| Compound | Ki [1] [nM] | Ki [2] [nM] | Ki [12] [nM] | Ki [17] [nM] | Ki [21] [nM] | further results |
| --- | --- | --- | --- | --- | --- | --- |
| CN1CCN([C@H]2Cn3cccc3Sc3ccc(Cl)cc32)CC1 | 1.85 |  |  |  |  |  |
| CN1CCN([C@H]2Cc3ccccc3Sc3ccc(Cl)cc32)CC1 | 0.4 | 1.9 |  |  |  |  |
| CN1CCN([C@@H]2Cn3cccc3Sc3ccc(Cl)cc32)CC1 | 110 |  | 287 | 0.82 |  | Ki [3]: 209 nM; ED50 at […] [4]: 0.48 µmol/kg; AUC [5]: 193.8; AUC [6]: 133; AUC [7]: 179; AUC [8]: 174.4; ED50 at […] [9]: 19.5 µmol/kg; ED50 [10]: 0.24 µmol/kg; AUC [11]: 145.4; ED50 at […] [13]: 115 µmol/kg; AUC [14]: 163.4; ED50 [15]: 45 µmol/kg; AUC [16]: 156.3; AUC [18]: 133.6; AUC [19]: 20.35; ED50 [20]: 14.3 µmol/kg |
| OCCN1CCN(C2Cn3cccc3Sc3ccc(Br)cc32)CC1 (racemic) | 10 | 20 |  |  | 23 |  |
| CN1CCCN(C2Cn3cccc3Sc3ccc(Cl)cc32)CC1 (racemic) | 58 | 53 |  |  | 16 | Ki [22]: 53.7 nM |
| CCN1CCN(C2Cn3cccc3Sc3ccc(Cl)cc32)CC1 (racemic) | 4.5 | 18.2 |  |  | 5.8 |  |
| OCCN1CCN(C2Cn3cccc3Sc3ccc(F)cc32)CC1 (racemic) |  | 72 | 6300 | 2.9 | 7.1 | Ki [22]: 74.1 nM; Ki [23]: 13.2 nM; Ki [24]: 7.1 nM; Ki [25]: 13 nM |
| OCCN1CCN(C2Cn3cccc3Sc3ccc(Cl)cc32)CC1 (racemic) | 3.6 | 27 |  |  | 8.8 |  |
| CN1CCN(C2Cn3cccc3Sc3ccc(Br)cc32)CC1 (racemic) |  | 14 |  |  | 12 |  |
| CCN1CCN(C2Cn3cccc3Sc3ccc(F)cc32)CC1 (racemic) |  | 31 | 2340 | 0.4 | 4.3 | Ki [23]: 18.2 nM; Ki [24]: 4.3 nM; Ki [25]: 18 nM |
| CCN1CCN(C2Cn3cccc3Sc3ccc(Br)cc32)CC1 (racemic) | 7.4 | 14 |  |  | 23 |  |
| CN1CCN([C@@H]2Cn3cccc3Sc3ccccc32)CC1 (stereo in doubt; (+)-6a) |  |  | 2270 | 18.8 |  | ED50 [26]: 269 µmol/kg; Ki [24]: 9.5 nM; ED50 at […] [27]: 2.8 µmol/kg; ED50 at […] [28]: 5.2 µmol/kg |
| CN1CCN([C@H]2Cn3cccc3Sc3ccc(F)cc32)CC1 (stereo in doubt; (+)-6b) |  |  |  | 12 |  |  |
| CN1CCN([C@H]2Cn3cccc3Sc3ccc(F)cc32)CC1 (stereo in doubt; (-)-6b) |  |  | > 10000 | 4.5 |  |  |
| CSc1ccc2c(c1)C(N1CCN(C)CC1)Cc1ccccc1S2 (stereo not given) [METITEPINE] |  |  |  |  |  | Ki [29]: 2 nM |
